Experimental data: ChEMBL document CHEMBL5346927, “Discovery of a novel 1H-pyrazole- [3,4-b] pyridine-based lysine demethylase 5B inhibitor with potential anti-prostate cancer activity that perturbs the phosphoinositide 3-kinase/AKT pathway” (Eur J Med Chem, 2023)
Activity calls are given as the source filed them. The rule behind the calls is not given here.

Key:
[1] = target: Lysine-specific demethylase 5B (Homo sapiens, UniProt Q9UGL1); assay: Inhibition of KDM5B (unknown origin) at 10 uM relative to control
PC-3 [2] = assay: Antitumor activity against human PC-3 cells assessed as inhibition of cell proliferation incubated for 72 hrs by MTT assay; assay type: functional, cell-based; settings: PC-3, 72 h
HepG2 = assay: Antitumor activity against human HepG2 cells assessed as inhibition of cell proliferation incubated for 72 hrs by MTT assay; assay type: functional, cell-based; settings: HepG2, 72 h
LNCaP [3] = assay: Antiproliferative activity against human LNCaP cells assessed as inhibition of cell proliferation incubated for 72 hrs by MTT assay; assay type: functional, cell-based
[4] = Cytotoxicity against human WPMY-1 cells incubated for 72 hrs by MTT assay; assay type: toxicity, cell-based
[5] = Cmax in ICR mouse at 25 mg/kg, IG measured at 0.083 to 24 hrs by LC-MS analysis; assay type: ADME, organism-based; parameters: time lower 0.083 hrs, dose 25 mg/kg, time upper 24 hrs, route ig; settings: in vivo, po
[6] = Tmax in ICR mouse at 25 mg/kg, IG measured at 0.083 to 24 hrs by LC-MS analysis; assay type: ADME, organism-based; settings: in vivo, po, time 0.083-24 hrs
[7] = Half-life in ICR mouse at 25 mg/kg, IG measured at 0.083 to 24 hrs by LC-MS analysis; assay type: ADME, organism-based; settings: in vivo, po, time 0.083-24 hrs
PC-3 [8] = assay: Inhibition of colony formation in human PC-3 cells incubated for 72 hrs by crystal violet staining based microplate reader analysis; assay type: functional, cell-based; settings: dose 1.25-5 µM
PC-3 [9] = assay: Inhibition of cell migration in human PC-3 cells at 5 to 10 uM by wound scratch assay; assay type: functional, cell-based; settings: dose 5-10 µM, time <= 24.0 hrs, TDE = time-dependent effect
LNCaP [10] = assay: Induction of cell cycle arrest in human LNCaP cells assessed as accumulation of cells at G2/M phase at 5 micromol/L incubated for 48 hrs by PI/RNaseA staining based flow cytometric analysis; assay type: functional; settings: dose 5.0 µmol/L
PC-3 [11] = assay: Induction of apoptosis in human PC-3 cells assessed as viable cells at 2.5 uM incubated for 72 hrs by Annexin V-FITC/PI staining based flow cytometric analysis (reference value: 90.93%); assay type: functional; settings: read-out: Activity
PC-3 [12] = assay: Induction of apoptosis in human PC-3 cells assessed as late apoptotic cells at 2.5 uM incubated for 72 hrs by Annexin V-FITC/PI staining based flow cytometric analysis (reference value: 1.05%); assay type: functional
PC-3 [13] = assay: Induction of apoptosis in human PC-3 cells assessed as necrotic cells at 2.5 uM incubated for 72 hrs by Annexin V-FITC/PI staining based flow cytometric analysis (reference value: 5.01%); assay type: functional
PC-3 [14] = assay: Induction of apoptosis in human PC-3 cells assessed as viable cells at 5 uM incubated for 72 hrs by Annexin V-FITC/PI staining based flow cytometric analysis (reference value: 90.93%); assay type: functional; settings: read-out: Activity
PC-3 [15] = assay: Induction of apoptosis in human PC-3 cells assessed as early apoptotic cells at 5 uM incubated for 72 hrs by Annexin V-FITC/PI staining based flow cytometric analysis (reference value: 3.01%); assay type: functional
PC-3 [16] = assay: Induction of apoptosis in human PC-3 cells assessed as necrotic cells at 5 uM incubated for 72 hrs by Annexin V-FITC/PI staining based flow cytometric analysis (reference value: 5.01%); assay type: functional
PC-3 [17] = assay: Induction of apoptosis in human PC-3 cells assessed as necrotic cells at 10 uM incubated for 72 hrs by Annexin V-FITC/PI staining based flow cytometric analysis (reference value: 5.01%); assay type: functional
[18] = Half-life in ICR mouse at 5 mg/kg, iv measured at 0.083 to 24 hrs by LC-MS analysis; assay type: ADME, organism-based; settings: in vivo, time 0.083-24 hrs
[19] = AUC (0 to t) in ICR mouse at 5 mg/kg, iv measured at 0.083 to 24 hrs by LC-MS analysis; assay type: ADME, organism-based; parameters: time lower 0.083 hrs, dose 5 mg/kg, time upper 24 hrs, route iv; settings: in vivo
[20] = MRT (0 to t) in ICR mouse at 5 mg/kg, iv measured at 0.083 to 24 hrs by LC-MS analysis; assay type: ADME, organism-based; settings: in vivo, time 0.083-24 hrs
[21] = Clearance in ICR mouse at 5 mg/kg, iv measured at 0.083 to 24 hrs by LC-MS analysis; assay type: ADME, organism-based; settings: in vivo, time 0.083-24 hrs
[22] = Acute toxicity in Kunming mouse assessed as effect on weight at 2 g/Kg, IG measured after 2 weeks; settings: in vivo, po, 2000 mg/kg, 336 h
[23] = Acute toxicity in Kunming mouse assessed as effect on spleen at 2 g/Kg, IG measured after 2 weeks by H&E staining based analysis; assay type: tissue-based; settings: in vivo, po, 2000 mg/kg, 336 h
[24] = Acute toxicity in Kunming mouse assessed as effect on lung at 2 g/Kg, IG measured after 2 weeks by H&E staining based analysis; assay type: tissue-based; settings: in vivo, po, 2000 mg/kg, 336 h
[25] = Acute toxicity in Kunming mouse assessed as prostate gland damage at 2 g/Kg, IG measured after 2 weeks by H&E staining based analysis; assay type: tissue-based; settings: in vivo, po, 2000 mg/kg, 336 h
PC-3 [26] = assay: Antitumor activity against human PC-3 cells xenografted in BALB/C nude mice assessed as decrease in tumor volume at 50 mg/kg, IG measured after 13 days; assay type: functional, organism-based; settings: time 13.0 day
PC-3 [27] = assay: Antitumor activity against human PC-3 cells xenografted in BALB/C nude mice assessed as decrease in tumor weight at 25 to 50 mg/kg, IG administered for 25 days; assay type: functional, organism-based; settings: dose 25-50 mg/kg, time 25.0 day
[28] = Toxicity in BALB/C nude mouse xenografted with human PC-3 cells assessed as liver damage at 25 to 50 mg/kg, IG administered for 25 days by H&E staining based analysis; assay type: organism-based; settings: in vivo, po, 600 h, dose 25-50 mg/kg, time 25 day
[29] = Toxicity in BALB/C nude mouse xenografted with human PC-3 cells assessed as spleen damage at 25 to 50 mg/kg, IG administered for 25 days by H&E staining based analysis; assay type: organism-based; settings: in vivo, po, 600 h, dose 25-50 mg/kg, time 25 day
[30] = Toxicity in BALB/C nude mouse xenografted with human PC-3 cells assessed as reduction in prostate gland cells at 25 mg/kg, IG administered for 25 days by H&E staining based analysis; assay type: organism-based; settings: in vivo, po, 600 h, time 25 day
[31] = Toxicity in BALB/C nude mouse xenografted with human PC-3 cells assessed as prostate gland damage at 25 to 50 mg/kg, IG administered for 25 days by H&E staining based analysis; assay type: organism-based; settings: in vivo, po, 600 h, dose 25-50 mg/kg, time 25 day
PC-3 [32] = assay: Inhibition of PI3K/AKT pathway in human PC-3 cells assessed as decrease in P110alpha level at 10 uM by Western blot analysis; assay type: cell-based
PC-3 [33] = assay: Inhibition of PI3K/AKT pathway in human PC-3 cells assessed as decrease in P85 level at 2.5 to 5 uM by Western blot analysis; assay type: cell-based; settings: dose 2.5-5 µM
PC-3 [34] = assay: Inhibition of PI3K/AKT pathway in human PC-3 cells assessed as decrease in P85 level at 10 to 20 uM by Western blot analysis; assay type: cell-based; settings: dose 10-20 µM
PC-3 [35] = assay: Inhibition of PI3K/AKT pathway in human PC-3 cells assessed as decrease in AKT phosphorylation at Thr308 residue at 2.5 to 10 uM by Western blot analysis; assay type: cell-based; settings: dose 2.5-10 µM
PC-3 [36] = assay: Inhibition of PI3K/AKT pathway in human PC-3 cells assessed as decrease in AKT phosphorylation at Thr308 residue at 20 uM by Western blot analysis relative to control; assay type: cell-based

Lysine-specific demethylase 5B, sequence (Q9UGL1 whole entry): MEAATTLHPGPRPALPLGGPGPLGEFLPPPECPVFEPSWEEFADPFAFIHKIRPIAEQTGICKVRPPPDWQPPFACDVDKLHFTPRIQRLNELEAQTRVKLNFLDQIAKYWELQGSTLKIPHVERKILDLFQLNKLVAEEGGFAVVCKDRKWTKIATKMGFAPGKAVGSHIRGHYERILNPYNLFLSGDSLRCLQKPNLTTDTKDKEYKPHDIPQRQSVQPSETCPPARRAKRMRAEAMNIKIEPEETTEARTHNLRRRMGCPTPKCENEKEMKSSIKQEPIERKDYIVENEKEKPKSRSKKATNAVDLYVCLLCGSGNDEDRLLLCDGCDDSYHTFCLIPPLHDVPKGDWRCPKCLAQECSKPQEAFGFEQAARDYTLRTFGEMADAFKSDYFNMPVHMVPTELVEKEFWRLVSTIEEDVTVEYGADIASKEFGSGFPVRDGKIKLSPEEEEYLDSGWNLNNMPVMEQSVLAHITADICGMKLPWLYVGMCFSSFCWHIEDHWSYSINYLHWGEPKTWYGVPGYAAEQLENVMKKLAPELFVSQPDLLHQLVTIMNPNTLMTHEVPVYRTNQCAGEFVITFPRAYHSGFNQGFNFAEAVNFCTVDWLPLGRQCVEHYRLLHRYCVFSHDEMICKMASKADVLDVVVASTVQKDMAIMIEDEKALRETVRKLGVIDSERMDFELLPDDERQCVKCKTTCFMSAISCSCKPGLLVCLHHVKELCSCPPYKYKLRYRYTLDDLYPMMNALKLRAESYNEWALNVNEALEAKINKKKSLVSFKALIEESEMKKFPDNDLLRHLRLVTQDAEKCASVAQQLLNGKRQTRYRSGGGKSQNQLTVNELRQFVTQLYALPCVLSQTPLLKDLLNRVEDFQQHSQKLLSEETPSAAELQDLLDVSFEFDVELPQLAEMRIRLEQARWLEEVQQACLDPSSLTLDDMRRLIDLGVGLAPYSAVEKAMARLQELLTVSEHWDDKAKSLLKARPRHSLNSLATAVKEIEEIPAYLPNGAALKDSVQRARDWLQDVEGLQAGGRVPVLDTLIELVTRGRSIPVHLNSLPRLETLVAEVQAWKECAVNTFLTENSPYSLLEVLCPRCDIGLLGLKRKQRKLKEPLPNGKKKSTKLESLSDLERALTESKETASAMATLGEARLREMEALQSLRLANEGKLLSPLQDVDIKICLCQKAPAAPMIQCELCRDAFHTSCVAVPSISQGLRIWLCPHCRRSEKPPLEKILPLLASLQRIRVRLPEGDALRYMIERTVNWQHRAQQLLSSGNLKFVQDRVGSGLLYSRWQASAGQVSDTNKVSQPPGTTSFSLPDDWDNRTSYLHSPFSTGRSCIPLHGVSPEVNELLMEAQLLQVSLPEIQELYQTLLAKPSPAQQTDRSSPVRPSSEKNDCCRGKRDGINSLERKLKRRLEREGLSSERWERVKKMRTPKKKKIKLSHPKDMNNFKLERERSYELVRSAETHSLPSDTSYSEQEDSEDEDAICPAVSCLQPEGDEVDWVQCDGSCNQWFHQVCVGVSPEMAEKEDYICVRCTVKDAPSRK

CN1CCN(CCNC(=O)c2cc(-c3ccc4ccccc4c3)nc3c2cnn3-c2ccccc2)CC1
inhibition [1]: 102% | IC50 (PC-3 [2]): 2.18 µM | IC50 (HepG2): 5.76 µM | IC50 (LNCaP [3]): 4.34 µM | IC50 at 72 h [4]: 27.9 µM | Cmax [5]: 412 ng/mL | Tmax [6]: 6 h | half-life [7]: 5.3 h | inhibition (PC-3 [8]): Dose-Dependent Effect | inhibition (PC-3 [9]): Tde | Activity (LNCaP [10]): inactive | viability at 2.5 µM (PC-3 [11]): 75% | Activity (PC-3 [12]): 5.94% | Activity (PC-3 [13]): 18.36% | viability at 5 µM (PC-3 [14]): 73% | Activity (PC-3 [15]): 0.64% | Activity (PC-3 [16]): 18.77% | Activity (PC-3 [17]): 23.96% | t1/2 [18]: 2.95 h | AUCt [19]: 44437.67 ng·h/mL | MRT(t) [20]: 10.29 h | CL [21]: 8.17 mL/min/kg | Activity [22]: Non-Toxic | Activity [23]: Non-Toxic | Activity [24]: Non-Toxic | Activity [25]: Non-Toxic | Activity (PC-3 [26]): Active | Activity (PC-3 [27]): Active | Activity [28]: Non-Toxic | Activity [29]: Non-Toxic | Activity [30]: Non-Toxic | Activity [31]: Non-Toxic | inhibition (PC-3 [32]): Active | inhibition (PC-3 [33]): inactive | inhibition (PC-3 [34]): Active | inhibition (PC-3 [35]): inactive | inhibition (PC-3 [36]): 60%
